The values that follow are results of earlier work, collected in patent US12290522B2, “Method of treating amyotrophic lateral sclerosis” (Woolsey Pharmaceuticals, Inc., priority 2021, dated 2025).

The conditions of this data set: in vivo; 1-hydroxy metabolite; Shibuya 2001; cited from earlier work.

On to `O=S(=O)(c1cccc2c(O)nccc12)N1CCCNCC1` [M3], for which the half-life result is “about 8 hours”.
